Consider twelve compounds from patent publication US7084167B2, “Calcium receptor active molecules and method for preparing same” (Centre National de la Rechereche Scientifique (CNRS), priority 2000, dated 2006).

Structures are written as SMILES.

One data set addresses T1, CaSR (Rattus norvegicus, UniProt P48442).
T1 construct: expressed in transfected cells; host or cells: CHO (Chinese hamster ovary) cells, CHO(CaSR)
T1 sequence (P48442 20-1079): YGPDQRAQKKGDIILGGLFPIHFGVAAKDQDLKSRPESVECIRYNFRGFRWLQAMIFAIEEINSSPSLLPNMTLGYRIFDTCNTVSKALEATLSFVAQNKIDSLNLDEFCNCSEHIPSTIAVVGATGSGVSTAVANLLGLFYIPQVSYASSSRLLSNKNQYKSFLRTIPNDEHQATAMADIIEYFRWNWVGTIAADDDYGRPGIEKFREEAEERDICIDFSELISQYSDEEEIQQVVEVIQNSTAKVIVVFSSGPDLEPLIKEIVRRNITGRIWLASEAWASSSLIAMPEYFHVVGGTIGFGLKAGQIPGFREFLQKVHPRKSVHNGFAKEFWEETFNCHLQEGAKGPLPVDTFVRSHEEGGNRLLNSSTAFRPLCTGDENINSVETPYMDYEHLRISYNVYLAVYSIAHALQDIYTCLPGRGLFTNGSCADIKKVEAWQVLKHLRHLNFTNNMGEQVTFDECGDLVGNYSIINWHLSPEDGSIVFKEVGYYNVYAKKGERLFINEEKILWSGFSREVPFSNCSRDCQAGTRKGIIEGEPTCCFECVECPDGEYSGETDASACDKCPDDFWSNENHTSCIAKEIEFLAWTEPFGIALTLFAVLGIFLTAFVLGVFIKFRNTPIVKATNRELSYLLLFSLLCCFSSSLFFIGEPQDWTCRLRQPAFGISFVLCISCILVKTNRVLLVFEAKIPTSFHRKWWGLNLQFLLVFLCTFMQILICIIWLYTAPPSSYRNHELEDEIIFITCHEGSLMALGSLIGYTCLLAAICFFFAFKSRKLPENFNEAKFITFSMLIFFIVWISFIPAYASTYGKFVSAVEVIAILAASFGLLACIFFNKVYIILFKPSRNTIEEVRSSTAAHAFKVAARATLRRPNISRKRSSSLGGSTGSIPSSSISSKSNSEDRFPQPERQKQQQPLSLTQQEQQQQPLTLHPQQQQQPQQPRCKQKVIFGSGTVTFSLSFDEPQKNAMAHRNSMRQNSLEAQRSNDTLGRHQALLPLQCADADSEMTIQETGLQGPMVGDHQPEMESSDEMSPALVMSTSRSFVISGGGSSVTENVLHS
In words: Accumulation of tritiated inositol phosphates in CHO(CaSR) cells. The class given is cell-based. The settings on record: for activation at 10 µM / activity at 10 µM: compound 10 μM; for activation at 10 µM: in the presence of 2 mM Ca2+; for activation at 10 µM / activation at 1 µM: CHO(CaSR) cells, read-out: Accumulation of (3H)-IP % of the 10 mM Ca2+ response ± S.E.; for activity at 10 µM: basal level at 2 mM Ca2+ = 100%, read-out: Accumulation of (1H)-IP % of basal level, CHO (CaSR); for activity greater than that of calcium (10 mM) / activation at 1 µM: compound 1 μM. The text has this:
The complementary DNA encoding rat CaSR has been isolated from a rat striatum cDNA library (Ruat et al, Proc. Natl. Acad. Sci., 1995). This receptor is identical, in terms of its amino acid sequence, to that expressed in the other tissues. Transfected Chinese hamster ovary (CHO) cells expressing rat CaSR (CHO(CaSR)) have been characterized and the chemical signals (second messengers) induced by activation of this receptor have been analyzed. Thus, a biochemical test for measuring the accumulation of tritiated inositol phosphates, [^3H]IPs, in response to activation of the receptor has been developed (Ruat et al, J. Biol. Chem., 1996; Ferry et al, Biochem. Biophys. Res. Common., 1997).
The calcimimetic activity of the compounds was estimated by measuring the accumulation of tritiated inositol phosphates, […] Ca^2+, in CHO(CaSR) cells (Ferry et al, Biochem Biophys Res Commun, 1997).
This activation was compared with that induced by the compound NPS-R-568, a reference calcimimetic used at a concentration of 10 μM (Table 1) (Ferry et al, Biochem Biophys Res Commun, 1997; Nemeth et al, Proc Natl Acad Sci USA, 1997).
The calcimimetic activity of the PHD/AK compounds is compared with that of a reference compound, NPS-R-568, used at the same concentration and under the same experimental conditions. This activity is expressed as a percentage of the activity of 10 mM of Ca^2+. The means±standard errors of the means of 2 to 5 independent manipulations are indicated. The experiments were carried out in the presence of 2 mM of Ca^2+.
(§1) The accumulation of tritiated inositol phosphates is expressed as a percentage of the basal level observed in the presence of 2 mM Ca^2+ (100%) in CHO (WT^+) or CHO(CaSR) cells.

The next data set has as its system CHO (WT*) cells. Put plainly: Accumulation of tritiated inositol phosphates in control CHO(WT*) cells not expressing the CaSR. The data set is classed as cell-based, Chinese hamster. The following applies: Cricetulus griseus, 1 h; compound 10 μM; basal level at 2 mM Ca2+ = 100%; read-out: Accumulation of (3H)-IP % of basal level, CHO (WT*). The protocol:
as §1

The target in data set [1] is T2, receptors of the parathyroid (Rattus norvegicus, UniProt P48442).
T2 construct: from tissue; host or cells: parathyroid gland of rats (in vivo)
T2 sequence (P48442 20-1079): T1 sequence (P48442 20-1079)
The following applies: rats; cited from earlier work.

The conditions of data set [2]: oral, menopausal women with primary hyperparathyroidism; cited from earlier work.
The conditions of data set [3]: patients (men) suffering from chronic renal failure; cited from earlier work.
For data set [4] the following is noted: rats; cited from earlier work.
The conditions of data set [5]: clinical trials phase I-II; cited from earlier work.

With `CC(NCc1cc2ccccc2n1C)c1cccc2ccccc12` (stereo not drawn) [AK 43], the activation at 10 µM at CaSR came out at 79 ± 13%. Also, the activity at 10 µM at CaSR was determined as 401 ± 16%; in the data set with CHO (WT*) cells, 109 ± 2%.

With `COc1cccc([C@@H](C)NCCCc2ccccc2)c1` [NPS R-467], the “selectivity, receptors of the parathyroid compared with those of the thyroid gland” value in data set [1] is on record as “more selective”.

On to `COc1cccc([C@@H](C)NCCCc2ccccc2Cl)c1.Cl` [NPS R-568], for which, in data set [2], the “concentrations of PTH” value is given as “lower” and the “concentrations of free serum Ca2+ ions” value was “lower”. In addition, the PTH concentrations entry in data set [3] is “reduces PTH concentrations”. Besides, at CaSR, the activation at 10 µM worked out at 106 ± 15% and the activity at 10 µM was determined as 454 ± 33%. For the same compound, the osteitis fibrosa entry in data set [4] was “reduces or eliminates osteitis fibrosa”. Also, the bioavailability result in data set [5] is on record as “low”. The activity at 10 µM with CHO (WT*) cells was 110 ± 9%.

In the case of `C[C@@H](NCc1cc2ccccc2[nH]1)c1cccc2ccccc12.Cl.Cl` [PHD 337-R, (R)-N-[(indole-2-yl)methyl]-N-[1-(1-naphthyl)ethyl]amine.HCl], the melting point – broadly, the temperature, or range, at which the solid turns liquid – stood at 204 °C. Also, on CaSR, the “activity greater than that of calcium (10 mM)” value worked out at 50%, the activation at 1 µM is 73 ± 10% and the activity at 10 µM came to 588 ± 129%. Moreover, the activity at 10 µM in the data set on CHO (WT*) cells is 130 ± 9%.

In the case of `C[C@H](NCc1cc2ccccc2[nH]1)c1cccc2ccccc12` [PHD 337-S], at CaSR, the activation at 1 µM was found to be 3 ± 2%, the activation at 10 µM came to 32 ± 5% and the activity at 10 µM was determined as 225 ± 7%. Moreover, the activity at 10 µM in the data set on CHO (WT*) cells is 132 ± 1%.

Consider `CC(NCc1cc2ccccc2[nH]1)c1cccc2ccccc12.Cl.Cl` (stereo not drawn) [PHD 337], for which, on CaSR, the “activity greater than that of calcium (10 mM)” value is on record as 50%, the activation at 1 µM turned out to be 69 ± 9%, the activation at 10 µM is 90 to 100% and the activity at 10 µM worked out at 444 ± 101%. Besides, in the data set on CHO (WT*) cells, the activity at 10 µM is 147 ± 14%.

Consider `COc1ccc(S(=O)(=O)n2c(CNC(C)c3cccc4ccccc34)cc3ccccc32)cc1OC` (stereo not drawn) [PHD 338], for which, on CaSR, the activation at 10 µM amounted to 54 ± 5% and the activity at 10 µM stood at 202 ± 9%. In addition, the activity at 10 µM in the data set with CHO (WT*) cells was 111 ± 10%.

Turning to `COc1cccc([C@@H](C)NCc2cc3ccccc3[nH]2)c1` [PHD 356], on CaSR, the “activity greater than that of calcium (10 mM)” value was 50%, the activation at 1 µM worked out at 76 ± 1%, the activation at 10 µM was 90 to 100% and the activity at 10 µM came out at 482 ± 58%. The activity at 10 µM with CHO (WT*) cells amounted to 151 ± 7%.

As to `COc1ccc2[nH]c(CNC(C)c3cccc4ccccc34)cc2c1` (stereo not drawn) [PHD 359], at CaSR, the activation at 10 µM is 55 ± 5% and the activity at 10 µM turned out to be 303 ± 42%. Also, the activity at 10 µM in the data set with CHO (WT*) cells stood at 117 ± 8%.

On to `CC(NCc1cc2cc(F)ccc2[nH]1)c1cccc2ccccc12` (stereo not drawn) [PHD 361], for which, on CaSR, the activation at 10 µM was found to be 87 ± 7% and the activity at 10 µM worked out at 420 ± 70%. Also, the activity at 10 µM in the data set on CHO (WT*) cells was found to be 133 ± 3%.

`CC(NCc1cc2cc(Cl)ccc2[nH]1)c1cccc2ccccc12.Cl.Cl` (stereo not drawn) [PHD 363]: on CaSR, the “activity greater than that of calcium (10 mM)” value is “less active”, the activation at 1 µM came to 6 ± 3%, the activation at 10 µM worked out at 60 ± 1% and the activity at 10 µM was 325 ± 67%. Besides, the activity at 10 µM in the data set with CHO (WT*) cells turned out to be 125 ± 12%.

Turning to `CC(NCC1Cc2ccccc2N1)c1cccc2ccccc12` (stereo not drawn) [PHD 368], at CaSR, the activation at 10 µM came out at 77 ± 1% and the activity at 10 µM was 388 ± 85%. Also, the activity at 10 µM in the data set with CHO (WT*) cells turned out to be 126 ± 6%.
